Reference: ChEMBL document CHEMBL1134106, “Novel heteroaryl replacements of aromatic 3-tetrafluoroethoxy substituents in trifluoro-3-(tertiaryamino)-2-propanols as potent inhibitors of cholesteryl ester transfer protein” (Bioorg Med Chem Lett, 2001)

How the values were obtained:
[1] = target: T1, Cholesteryl ester transfer protein (Homo sapiens, UniProt P11597); test: Inhibition of recombinant human CETP mediated transfer of [3H]cholesteryl ester from HDL to LDL
T1 sequence (P11597 whole entry): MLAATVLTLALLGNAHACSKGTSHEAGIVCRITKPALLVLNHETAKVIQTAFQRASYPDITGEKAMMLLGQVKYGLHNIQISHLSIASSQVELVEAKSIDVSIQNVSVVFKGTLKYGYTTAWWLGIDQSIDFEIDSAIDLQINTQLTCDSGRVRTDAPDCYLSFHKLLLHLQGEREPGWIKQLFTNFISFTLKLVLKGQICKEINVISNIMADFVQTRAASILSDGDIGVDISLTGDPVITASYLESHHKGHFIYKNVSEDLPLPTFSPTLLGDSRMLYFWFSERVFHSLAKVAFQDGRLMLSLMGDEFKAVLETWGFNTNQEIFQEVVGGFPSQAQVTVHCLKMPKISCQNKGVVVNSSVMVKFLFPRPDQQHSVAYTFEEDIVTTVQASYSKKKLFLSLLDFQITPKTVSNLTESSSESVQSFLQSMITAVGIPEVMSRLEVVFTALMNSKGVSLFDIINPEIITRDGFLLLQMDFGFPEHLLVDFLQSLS

[2] = target: T1, Cholesteryl ester transfer protein; test: In vitro human CETP inhibitory activity assessed by measuring the rate of [3H]cholesteryl ester ([3H]CE) from HDL donor particles to LDL acceptor particles using human serum by serum transfer assay

SMILES | IC50 [1] [µM] | IC50 [2] [µM]
OC(CN(Cc1ccc(F)c(-c2ccco2)c1)c1cccc(Oc2ccccc2)c1)C(F)(F)F (configuration not stated) | 0.72 | 
OC(CN(Cc1cccc(-c2cccs2)c1)c1cccc(Oc2ccccc2)c1)C(F)(F)F (configuration not stated) | 1.12 | 83
OC(CN(Cc1cccc(-c2ccccc2)c1)c1cccc(Oc2ccccc2)c1)C(F)(F)F (configuration not stated) | 4.42 | 47
Cc1ccc(CN(CC(O)C(F)(F)F)c2cccc(Oc3ccccc3)c2)cc1-c1ccco1 (configuration not stated) | 3.96 | 
OC(CN(Cc1cccc(-c2cccnc2)c1)c1cccc(Oc2ccccc2)c1)C(F)(F)F (configuration not stated) | 14.3 | 
